Experimental data reported in article PMC8713996, “An anti-tuberculosis compound screen using a zebrafish infection model identifies an aspartyl-tRNA synthetase inhibitor” (Disease Models & Mechanisms, 2021).

Assays:
[1] = tested on: Mtb-R-TBA161-C (aspS F526L); format: cell-based, Mycobacterium tuberculosis
[2] = tested on: Mtb carrying pMS2-aspSMmar or pMS2-aspSMmarR168G; format: cell-based, Mycobacterium tuberculosis

O=c1c2cc(Cl)cc(Cl)c2oc2nc3n(c(=O)c12)CCCS3 [TBA161-C, 9,11-dichloro-3,4-dihydro-chromeno[2′,3′:4,5]pyrimido[2,1-b][1,3]thiazine-6,7-dione]
MIC90, TBA161-C-resistant Mtb strains [1]: exceeding 20 µM
MIC90 of resistant Mtb strains compared to the parental strain [1]: more than tenfold higher
Increase of MIC90, Mtb overexpressing wild-type aspS vs wild-type strain [2]: fivefold
MIC90, Mtb overexpressing mutated aspS (aspSMmarR168G) [2]: > 80 µM
